Results taken from US12285012B2, “Compositions comprising pyridine carboxylate herbicides with acetolactate synthase (ALS) inhibitor herbicides” (Corteva Agriscience LLC, priority 2018, dated 2025).

Columns and labels:
spring barley (HORVS) = assay type: in vivo, Hordeum vulgare
Procedure, shortened: (§1)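 Injury was rated visually after 20-22 d on a 0 (none) to 100% (complete kill) scale relative to solvent-sprayed controls, with sub-irrigation to avoid wash-off. Rates were given in g ae/ha or g ai/ha depending on component.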

spring wheat (TRZAS) = assay type: in vivo, Triticum aestivum
Procedure, shortened: as §1

[1] = test system: wild buckwheat (POLCO, Polygonum convolvulus); experiment: Greenhouse postemergence herbicidal effect; assay type: in vivo
Procedure, shortened: as §1

[2] = test system: Russian thistle (SASKR, Salsola kali); experiment: Greenhouse postemergence herbicidal effect; assay type: in vivo; conditions: Florasulam 5 g/ha
Procedure, shortened: as §1

[3] = test system: wild chamomile (MATCH, Matricaria chamomilla); experiment: Greenhouse postemergence herbicidal effect; assay type: in vivo
Procedure, shortened: as §1

[4] = test system: chickweed (STEME, Stellaria media); experiment: Greenhouse postemergence herbicidal effect; assay type: in vivo; conditions: Florasulam 5 g/ha
Procedure, shortened: as §1

[5] = test system: pineapple weed (MATMT, Matricaria discoidea); experiment: Greenhouse postemergence herbicidal effect; assay type: in vivo; conditions: Florasulam 5 g/ha
Procedure, shortened: as §1

[6] = test system: wild pansy (VIOTR, Viola tricolor); experiment: Greenhouse postemergence herbicidal effect; assay type: in vivo; conditions: Florasulam 5 g/ha
Procedure, shortened: as §1

[7] = test system: winter rape (BRSNW, Brassica napus); experiment: Greenhouse postemergence herbicidal effect; assay type: in vivo
Procedure, shortened: as §1

[8] = test system: Canadian thistle (CIRAR, Cirsium arvense); experiment: Greenhouse postemergence herbicidal effect; assay type: in vivo
Procedure, shortened: as §1

[9] = test system: pigweed (AMARE, Amaranthus retroflexus); experiment: Greenhouse postemergence herbicidal effect; assay type: in vivo; conditions: Florasulam 3.75 g/ha
Procedure, shortened: as §1

COc1ncc(F)c2nc(S(=O)(=O)Nc3c(F)cccc3F)nn12 [Florasulam, florasulam]
% visual injury Obs (spring barley (HORVS); Florasulam 3.75 g/ha): 0% | % visual injury (spring barley (HORVS); Florasulam 5 g/ha): 0% | % visual injury Obs (spring wheat (TRZAS); Florasulam 3.75 g/ha): 0% | % visual injury (spring wheat (TRZAS); Florasulam 5 g/ha): 0% | % visual injury Obs ([1]; Florasulam 3.75 g/ha): 90% | % visual injury ([1]; Florasulam 5 g/ha): 87% | % visual injury [2]: 85% | % visual injury Obs ([3]; Florasulam 3.75 g/ha): 85% | % visual injury ([3]; Florasulam 5 g/ha): 85% | Obs % visual injury ([3]; MATCH, Florasulam 5 g/ha): 20% | % visual injury [4]: 100% | % visual injury [5]: 95% | Obs % visual injury ([5]; MATMT): 65% | % visual injury [6]: 10% | Obs % visual injury ([7]; BRSNW, Florasulam 5 g/ha): 35% | % visual injury Obs ([7]; Florasulam 3.75 g/ha): 95% | % visual injury ([7]; Florasulam 5 g/ha): 97% | % visual injury Obs ([8]; Florasulam 3.75 g/ha): 68% | % visual injury ([8]; Florasulam 5 g/ha): 75% | % visual injury Obs [9]: 100%
